Test results: publication PMC5218480 (PLoS ONE, 2017)

System: MV-4-11 cells
Assay: Gene expression microarray analysis (Affymetrix PrimeView) and GSEA
Format: cell-based, human
Design: RFU PODN (11730768_x_at) / Fold change /veh PODN (11730768_x_at) / RFU LINC00158 (11744669_a_at) / Fold change /veh LINC00158 (11744669_a_at) / RFU DUSP10 (11751237_a_at) / Fold change /veh DUSP10 (11751237_a_at) / RFU ID3 (11757404_x_at) / Fold change /veh ID3 (11757404_x_at) / RFU PLEKHG5 (11737974_s_at) / Fold change /veh PLEKHG5 (11737974_s_at) / RFU LRRC4B (11730491_at) / Fold change /veh LRRC4B (11730491_at) / RFU GIMAP4 (11747438_a_at) / Fold change /veh GIMAP4 (11747438_a_at) / RFU KRT8 (11758183_x_at) / Fold change /veh KRT8 (11758183_x_at) / RFU CNN1 (11734310_a_at) / Fold change /veh CNN1 (11734310_a_at) / RFU VPS37D (11726825_at) / Fold change /veh VPS37D (11726825_at) / RFU C10orf10 (11716522_x_at) / Fold change /veh C10orf10 (11716522_x_at) / RFU KIR2DL2 /// KIR2DL4 /// KIR2DL5A /// KIR2DL5B /// KIR2DS1 /// KIR2DS2 /// KIR2DS3 /// KIR2DS4 /// KIR3DL3 /// KIR3DL3 /// KIR3DS1 (11738374_at) / Fold change /veh KIR2DL2 /// KIR2DL4 /// KIR2DL5A /// KIR2DL5B /// KIR2DS1 /// KIR2DS2 /// KIR2DS3 /// KIR2DS4 /// KIR3DL3 /// KIR3DL3 /// KIR3DS1 (11738374_at) / RFU C1QL1 (11718748_at) / Fold change /veh C1QL1 (11718748_at) / RFU TMPRSS4 (11747572_a_at) / Fold change /veh TMPRSS4 (11747572_a_at) / RFU HAMP (11756126_x_at) / Fold change /veh HAMP (11756126_x_at) / RFU RNFT2 (11725882_a_at) / Fold change /veh RNFT2 (11725882_a_at) / RFU NR4A2 (11747474_a_at) / Fold change /veh NR4A2 (11747474_a_at) / RFU ABCC12 (11746883_a_at) / Fold change /veh ABCC12 (11746883_a_at) / RFU TMEM136 (11760407_x_at) / Fold change /veh TMEM136 (11760407_x_at) / RFU CLDN22 /// WWC2 (11732394_at) / Fold change /veh CLDN22 /// WWC2 (11732394_at) / RFU HLA-DPB1 (11760878_x_at) / Fold change /veh HLA-DPB1 (11760878_x_at) / RFU SPINT1 (11716480_a_at) / Fold change /veh SPINT1 (11716480_a_at) / RFU GAP43 (11754022_s_at) / Fold change /veh GAP43 (11754022_s_at) / RFU A4GNT (11735810_at) / Fold change /veh A4GNT (11735810_at) / RFU PRB3 (11715151_x_at) / Fold change /veh PRB3 (11715151_x_at) / RFU TUBB4B (11761932_at) / Fold change /veh TUBB4B (11761932_at) / RFU CAPN14 (11732068_a_at) / Fold change /veh CAPN14 (11732068_a_at) / RFU TMCC2 (11721928_a_at) / Fold change /veh TMCC2 (11721928_a_at) / RFU IRGQ (11745062_a_at) / Fold change /veh IRGQ (11745062_a_at) / RFU FAM174B (11720279_a_at) / Fold change /veh FAM174B (11720279_a_at) / RFU TMPRSS4 (11748680_a_at) / Fold change /veh TMPRSS4 (11748680_a_at) / RFU FAM212B (11763350_a_at) / Fold change /veh FAM212B (11763350_a_at) / RFU PLEKHG5 (11743358_a_at) / Fold change /veh PLEKHG5 (11743358_a_at) / RFU ZSCAN30 (11745921_a_at) / Fold change /veh ZSCAN30 (11745921_a_at) / RFU CMKLR1 (11741424_a_at) / Fold change /veh CMKLR1 (11741424_a_at) / RFU LOC101060620 /// MAPK8IP1 (11723275_at) / Fold change /veh LOC101060620 /// MAPK8IP1 (11723275_at) / RFU SPTSSB (11747773_x_at) / Fold change /veh SPTSSB (11747773_x_at) / RFU PRSS12 (11739890_at) / Fold change /veh PRSS12 (11739890_at) / RFU BIN1 (11741810_x_at) / Fold change /veh BIN1 (11741810_x_at) / RFU WNT11 (11732464_a_at) / Fold change /veh WNT11 (11732464_a_at) / RFU C10orf10 (11716521_a_at) / Fold change /veh C10orf10 (11716521_a_at) / RFU C5orf56 (11738089_at) / Fold change /veh C5orf56 (11738089_at) / RFU CYB561 (11721691_x_at) / Fold change /veh CYB561 (11721691_x_at) / RFU ANKRD19P (11752326_a_at) / Fold change /veh ANKRD19P (11752326_a_at) / RFU OR2T12 /// OR2T33 /// OR2T8 (11738714_s_at) / Fold change /veh OR2T12 /// OR2T33 /// OR2T8 (11738714_s_at) / RFU VCAN (11748164_a_at) / Fold change /veh VCAN (11748164_a_at) / RFU JSRP1 (11732532_at) / Fold change /veh JSRP1 (11732532_at) / RFU KRTAP10-11 (11738290_x_at) / Fold change /veh KRTAP10-11 (11738290_x_at) / RFU MYO3A (11730013_a_at) / Fold change /veh MYO3A (11730013_a_at) / RFU EBF3 (11725865_a_at) / Fold change /veh EBF3 (11725865_a_at) / RFU CAMK2N1 (11719241_x_at) / Fold change /veh CAMK2N1 (11719241_x_at) / RFU C5orf56 (11738088_a_at) / Fold change /veh C5orf56 (11738088_a_at) / RFU OLFML3 (11715873_a_at) / Fold change /veh OLFML3 (11715873_a_at) / RFU LOC100653217 /// NTM (11731650_a_at) / Fold change /veh LOC100653217 /// NTM (11731650_a_at) / RFU MAPK11 (11762145_a_at) / Fold change /veh MAPK11 (11762145_a_at) / RFU FIZ1 (11724087_x_at) / Fold change /veh FIZ1 (11724087_x_at) / RFU OASL (11726364_x_at) / Fold change /veh OASL (11726364_x_at) / RFU SOX15 (11748057_x_at) / Fold change /veh SOX15 (11748057_x_at) / RFU CD79A (11719716_a_at) / Fold change /veh CD79A (11719716_a_at) / RFU HIST1H1D (11736915_at) / Fold change /veh HIST1H1D (11736915_at) / RFU CASKIN2 (11723855_a_at) / Fold change /veh CASKIN2 (11723855_a_at) / RFU LOC730098 (11760151_x_at) / Fold change /veh LOC730098 (11760151_x_at) / RFU OR4N2 (11742367_at) / Fold change /veh OR4N2 (11742367_at) / RFU PRRT2 (11749266_a_at) / Fold change /veh PRRT2 (11749266_a_at) / RFU SNX32 (11753110_a_at) / Fold change /veh SNX32 (11753110_a_at) / RFU CDHR5 (11726645_a_at) / Fold change /veh CDHR5 (11726645_a_at) / RFU RCAN1 (11760418_a_at) / Fold change /veh RCAN1 (11760418_a_at) / RFU FAM167A (11723789_a_at) / Fold change /veh FAM167A (11723789_a_at) / RFU FAM26E (11764081_at) / Fold change /veh FAM26E (11764081_at) / RFU ISYNA1 (11749810_s_at) / Fold change /veh ISYNA1 (11749810_s_at) / RFU ACY1 (11761880_at) / Fold change /veh ACY1 (11761880_at) / RFU 11764098_at / Fold change /veh 11764098_at / RFU SAMD14 (11745864_x_at) / Fold change /veh SAMD14 (11745864_x_at) / RFU NPB (11741838_a_at) / Fold change /veh NPB (11741838_a_at) / RFU TMPRSS6 (11731388_a_at) / Fold change /veh TMPRSS6 (11731388_a_at) / RFU KRTAP10-2 (11738614_at) / Fold change /veh KRTAP10-2 (11738614_at) / RFU ARHGAP8 /// PRR5-ARHGAP8 (11727945_x_at) / Fold change /veh ARHGAP8 /// PRR5-ARHGAP8 (11727945_x_at) / RFU KRTAP5-7 /// NADSYN1 (11734609_at) / Fold change /veh KRTAP5-7 /// NADSYN1 (11734609_at) / RFU RASL12 (11751679_a_at) / Fold change /veh RASL12 (11751679_a_at) / RFU CDKN2B (11736163_a_at) / Fold change /veh CDKN2B (11736163_a_at) / RFU PRF1 (11729649_at) / Fold change /veh PRF1 (11729649_at) / RFU, ZNF638 /// ZNF638-IT1 / Fold change vs veh, ZNF638 /// ZNF638-IT1 / RFU, PANK3 / Fold change vs veh, PANK3 / RFU, SH3YL1 / Fold change vs veh, SH3YL1 / RFU, ZEB2 / Fold change vs veh, ZEB2 / RFU, NRIP1 / Fold change vs veh, NRIP1 / RFU, PTTG1IP / Fold change vs veh, PTTG1IP / RFU, CAPN2 / Fold change vs veh, CAPN2 / RFU, MED14 / Fold change vs veh, MED14 / RFU, SNORA58 / Fold change vs veh, SNORA58 / RFU, C1orf63 / Fold change vs veh, C1orf63 / RFU, LRRFIP1 / Fold change vs veh, LRRFIP1 / RFU, NDUFAF7 / Fold change vs veh, NDUFAF7 / RFU, SLC12A2 / Fold change vs veh, SLC12A2 / RFU, IBTK / Fold change vs veh, IBTK / RFU, ESF1 / Fold change vs veh, ESF1 / Fold change vs veh, TMEM50B / RFU, TAOK1 / Fold change vs veh, TAOK1 / RFU, ACBD3 / Fold change vs veh, ACBD3 / RFU, TMA16 / Fold change vs veh, TMA16 / RFU, RWDD3 / Fold change vs veh, RWDD3 / RFU, BCAT1 / Fold change vs veh, BCAT1 / RFU, EDEM3 / Fold change vs veh, EDEM3 / RFU, TMEM33 / Fold change vs veh, TMEM33 / RFU, WDR75 / Fold change vs veh, WDR75 / RFU, AHCTF1 / Fold change vs veh, AHCTF1 / RFU, TFRC / Fold change vs veh, TFRC / RFU, ZDHHC17 / Fold change vs veh, ZDHHC17 / RFU, NOM1 / Fold change vs veh, NOM1 / RFU, ARL8B / Fold change vs veh, ARL8B / RFU, ZBTB11 / Fold change vs veh, ZBTB11 / RFU, TAMM41 / Fold change vs veh, TAMM41 / RFU, KIAA1704 /// LOC100996395 / Fold change vs veh, KIAA1704 /// LOC100996395 / RFU, ING1 / Fold change vs veh, ING1 / RFU, TRMT61B / Fold change vs veh, TRMT61B / RFU, FUBP3 / Fold change vs veh, FUBP3 / RFU, TP53 / Fold change vs veh, TP53 / RFU, TNKS2 / Fold change vs veh, TNKS2 / RFU, ZFP14 / Fold change vs veh, ZFP14 / RFU, ACTR2 / Fold change vs veh, ACTR2 / RFU, PPP3R1 / Fold change vs veh, PPP3R1 / RFU, PIK3R1 / Fold change vs veh, PIK3R1 / RFU, HNRNPA1 / Fold change vs veh, HNRNPA1 / RFU, RNF170 / Fold change vs veh, RNF170 / RFU, ZNF28 / Fold change vs veh, ZNF28 / RFU, RNGTT / Fold change vs veh, RNGTT / RFU, OGT / Fold change vs veh, OGT / RFU, BRD1 / Fold change vs veh, BRD1 / RFU, MARS / Fold change vs veh, MARS / RFU, ZNF655 / Fold change vs veh, ZNF655 / RFU, FAHD1 / Fold change vs veh, FAHD1 / RFU, BDP1 / Fold change vs veh, BDP1 / RFU, LRRCC1 / Fold change vs veh, LRRCC1 / RFU, ARID1A / Fold change vs veh, ARID1A / RFU, ZNF146 / Fold change vs veh, ZNF146 / RFU, ZNF330 / Fold change vs veh, ZNF330 / RFU, GPN3 / Fold change vs veh, GPN3 / RFU, C9orf123 / Fold change vs veh, C9orf123 / RFU, N4BP2L2 / Fold change vs veh, N4BP2L2 / RFU, ARFIP1 / Fold change vs veh, ARFIP1 / RFU, FAM179B / Fold change vs veh, FAM179B / RFU, BCL10 / Fold change vs veh, BCL10 / RFU, UHRF1BP1L / Fold change vs veh, UHRF1BP1L / RFU, BET1 / Fold change vs veh, BET1 / RFU, CNOT2 / Fold change vs veh, CNOT2 / RFU, ZNF268 / Fold change vs veh, ZNF268 / Fold change vs veh, ZNF507 / RFU, DGCR2 / Fold change vs veh, DGCR2 / RFU, WDSUB1 / Fold change vs veh, WDSUB1 / Fold change vs veh, HSP90B1 /// MIR3652 / RFU, ADSS / Fold change vs veh, ADSS / RFU, GK / Fold change vs veh, GK / RFU, ZNF148 / Fold change vs veh, ZNF148 / RFU, TAF9 / Fold change vs veh, TAF9 / RFU, SLC1A5 / Fold change vs veh, SLC1A5 / RFU, SLMO2 / Fold change vs veh, SLMO2 / RFU, ABCC4 / Fold change vs veh, ABCC4 / RFU, LOC101060439 /// RAP1B / Fold change vs veh, LOC101060439 /// RAP1B / RFU, RFX7 / Fold change vs veh, RFX7 / RFU, GTPBP10 / Fold change vs veh, GTPBP10 / RFU, CNEP1R1 / Fold change vs veh, CNEP1R1 / RFU, BIVM-ERCC5 /// ERCC5 / Fold change vs veh, BIVM-ERCC5 /// ERCC5 / RFU, ILF3 / Fold change vs veh, ILF3 / RFU 11762660_at / Fold change /veh 11762660_at / RFU VCAN (11757783_s_at) / Fold change /veh VCAN (11757783_s_at) / RFU DDX43 (11728927_at) / Fold change /veh DDX43 (11728927_at) / RFU KRT8 (11758188_x_at) / Fold change /veh KRT8 (11758188_x_at) / RFU NKD1 (11759106_at) / Fold change /veh NKD1 (11759106_at) / RFU SRD5A1 (11742802_a_at) / Fold change /veh SRD5A1 (11742802_a_at) / RFU TPSAB1 /// TPSB2 (11721975_s_at) / Fold change /veh TPSAB1 /// TPSB2 (11721975_s_at) / RFU GSTM3 (11746129_a_at) / Fold change /veh GSTM3 (11746129_a_at) / RFU IL23R (11737362_x_at) / Fold change /veh IL23R (11737362_x_at) / RFU TMEM51 (11727254_a_at) / Fold change /veh TMEM51 (11727254_a_at) / RFU PIWIL2 (11732686_x_at) / Fold change /veh PIWIL2 (11732686_x_at) / RFU ORM1 (11744905_x_at) / Fold change /veh ORM1 (11744905_x_at) / RFU CCDC152 (11743942_at) / Fold change /veh CCDC152 (11743942_at) / RFU ECM1 (11717891_a_at) / Fold change /veh ECM1 (11717891_a_at) / RFU IL23R (11748794_a_at) / Fold change /veh IL23R (11748794_a_at) / RFU TNFAIP8L3 (11732012_x_at) / Fold change /veh TNFAIP8L3 (11732012_x_at) / RFU MBOAT4 (11741988_at) / Fold change /veh MBOAT4 (11741988_at) / RFU 11764193_at / Fold change /veh 11764193_at / RFU TMEM53 (11763286_at) / Fold change /veh TMEM53 (11763286_at) / RFU MAGEB2 (11727129_at) / Fold change /veh MAGEB2 (11727129_at) / RFU TMEM200A (11744735_a_at) / Fold change /veh TMEM200A (11744735_a_at) / RFU CCDC152 (11751479_a_at) / Fold change /veh CCDC152 (11751479_a_at) / RFU FAM211A (11726209_a_at) / Fold change /veh FAM211A (11726209_a_at) / RFU RGS16 (11746705_a_at) / Fold change /veh RGS16 (11746705_a_at) / RFU VCAN (11755009_s_at) / Fold change /veh VCAN (11755009_s_at) / RFU RHOB (11743442_s_at) / Fold change /veh RHOB (11743442_s_at) / RFU RGS16 (11720943_a_at) / Fold change /veh RGS16 (11720943_a_at) / RFU RGS16 (11720944_at) / Fold change /veh RGS16 (11720944_at) / RFU, VPS4B / Fold change vs veh, VPS4B / RFU, CREB1 / Fold change vs veh, CREB1 / RFU, DNAJC13 / Fold change vs veh, DNAJC13 / RFU, GNAQ / Fold change vs veh, GNAQ / RFU, CDK5R1 / Fold change vs veh, CDK5R1 / RFU, ZRANB3 / Fold change vs veh, ZRANB3 / RFU, CUL4A / Fold change vs veh, CUL4A / RFU, CCNY / Fold change vs veh, CCNY / RFU, UFL1 / Fold change vs veh, UFL1 / RFU, COG3 / Fold change vs veh, COG3 / RFU, DIAPH2 / Fold change vs veh, DIAPH2 / RFU, SKA2 / Fold change vs veh, SKA2 / RFU, AFF3 / Fold change vs veh, AFF3 / RFU, LMF1 / Fold change vs veh, LMF1 / RFU, IPO11 / Fold change vs veh, IPO11 / RFU, DFFB / Fold change vs veh, DFFB / RFU, FOXP1 / Fold change vs veh, FOXP1 / RFU, CARD8 / Fold change vs veh, CARD8 / RFU, STRN3 / Fold change vs veh, STRN3 / RFU, ADK / Fold change vs veh, ADK / RFU, RASSF2 / Fold change vs veh, RASSF2 / RFU, WIPF1 / Fold change vs veh, WIPF1 / RFU, LARP1B / Fold change vs veh, LARP1B / RFU, RASA1 / Fold change vs veh, RASA1 / RFU, RB1 / Fold change vs veh, RB1 / RFU, PPFIA1 / Fold change vs veh, PPFIA1 / RFU, MAT2A / Fold change vs veh, MAT2A / RFU, CCT5 / Fold change vs veh, CCT5 / RFU, WDR92 / Fold change vs veh, WDR92 / RFU, CUX1 / Fold change vs veh, CUX1 / RFU, TTC7A / Fold change vs veh, TTC7A / RFU, TMEM135 / Fold change vs veh, TMEM135 / RFU, DEPTOR / Fold change vs veh, DEPTOR / RFU, CPM / Fold change vs veh, CPM / RFU, DNAJB6 / Fold change vs veh, DNAJB6 / RFU, CACNA2D3 / Fold change vs veh, CACNA2D3 / RFU, DTX4 / Fold change vs veh, DTX4 / RFU, TFCP2 / Fold change vs veh, TFCP2 / RFU, GMCL1 /// GMCL1P1 / Fold change vs veh, GMCL1 /// GMCL1P1 / RFU, AEBP2 / Fold change vs veh, AEBP2 / RFU, SNHG1 /// SNORD22 /// SNORD25 /// SNORD26 /// SNORD27 /// SNORD28 /// SNORD29 /// SNORD31 / Fold change vs veh, SNHG1 /// SNORD22 /// SNORD25 /// SNORD26 /// SNORD27 /// SNORD28 /// SNORD29 /// SNORD31 / Fold change (Aza/veh), C12orf56 (ProbeSet 11735607_a_at) / Fold change (ACY-1035/veh), C12orf56 (ProbeSet 11735607_a_at) / Fold change (Aza/veh), FGFR1OP (ProbeSet 11751329_s_at) / Fold change (ACY-1035/veh), FGFR1OP (ProbeSet 11751329_s_at) / Fold change (Aza/veh), VPS36 (ProbeSet 11739960_a_at) / Fold change (ACY-1035/veh), VPS36 (ProbeSet 11739960_a_at) / RFU SYPL1 (11715823_x_at) / Fold change /veh SYPL1 (11715823_x_at) / RFU IGFBP7 (11715501_s_at) / Fold change /veh IGFBP7 (11715501_s_at) / RFU REEP3 (11722064_at) / Fold change /veh REEP3 (11722064_at) / RFU IGLL1 (11728026_x_at) / Fold change /veh IGLL1 (11728026_x_at): dose or concentration left out as unconfirmed
Settings: ProbeSet 11716331_a_at; LIST D

## Nc1ncn([C@@H]2O[C@H](CO)[C@@H](O)[C@H]2O)c(=O)n1 [azacitidine]
  RFU, DNAJB6: 212.79 RFU
